According to ChEMBL document CHEMBL1201862, “PubChem BioAssay data set” (2004):
Activity calls are given as the source filed them.

How the values were obtained:
[1] = molecular target: T1, Heat shock factor protein 1 (Mus musculus, UniProt P38532); assay: inhibition of MG132-induced HSE-luciferase signal, confirmation, cell-based, NIH3T3, luminescence, dose retest (AID 2382); type: functional;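 also: NIH3T3 fibroblasts with HSF1-driven luciferase reporter stressed by proteasome inhibitor MG132; luminescence from HSF1-driven luciferase expression after 8 hours of MG132 stress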
T1 sequence (P38532 whole entry): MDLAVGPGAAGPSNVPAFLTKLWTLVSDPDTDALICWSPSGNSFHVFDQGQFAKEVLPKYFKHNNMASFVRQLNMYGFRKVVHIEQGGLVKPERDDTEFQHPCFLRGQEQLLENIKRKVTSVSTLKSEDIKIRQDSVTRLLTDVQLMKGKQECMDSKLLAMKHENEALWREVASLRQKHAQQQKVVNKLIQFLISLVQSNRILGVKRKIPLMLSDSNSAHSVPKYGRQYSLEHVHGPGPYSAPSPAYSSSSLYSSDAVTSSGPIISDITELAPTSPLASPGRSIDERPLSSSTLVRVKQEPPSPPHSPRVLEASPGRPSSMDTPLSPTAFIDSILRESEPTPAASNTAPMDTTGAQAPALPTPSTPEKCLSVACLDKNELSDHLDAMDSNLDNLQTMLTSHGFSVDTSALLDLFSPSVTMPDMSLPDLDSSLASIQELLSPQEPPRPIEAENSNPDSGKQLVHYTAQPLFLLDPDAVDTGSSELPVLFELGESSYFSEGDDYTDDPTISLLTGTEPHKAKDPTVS

[2] = tested on: Streptococcus sp. 'group A'; assay: growth inhibition of control SK(-) GAS strain, dose response, counter-screen for streptokinase expression inhibitor project, luminescence, kanamycin, BacTiterGlo, confirmation (AID 1900); type: functional, organism-based
[3] = Luminescence Cell-Based Dose Retest to Confirm Inhibitors of Cancer Stem Cells. [Related pubchem assays (depositor defined):AID2717, AID2721]; type: functional; conditions: Homo sapiens
Streptococcus = assay: Group A Streptococcus viability loss, dose response, counter-screen for streptokinase expression inhibitor project, luminescence, BacTiterGlo (AID 1915); type: functional, organism-based;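 also: potency for reduction of bacterial viability or growth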
Streptokinase A = molecular target: T2, Streptokinase A (Streptococcus pyogenes serotype M1, UniProt P10520); assay: S. pyogenes streptokinase expression inhibitors, potency, dose response, plasminogen activation absorbance, OD405 (AID 1914); type: functional, Streptococcus pyogenes M1 GAS;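 also: secreted streptokinase activity via plasminogen activation per viability signal from cell pellet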
T2 sequence (P10520 whole entry): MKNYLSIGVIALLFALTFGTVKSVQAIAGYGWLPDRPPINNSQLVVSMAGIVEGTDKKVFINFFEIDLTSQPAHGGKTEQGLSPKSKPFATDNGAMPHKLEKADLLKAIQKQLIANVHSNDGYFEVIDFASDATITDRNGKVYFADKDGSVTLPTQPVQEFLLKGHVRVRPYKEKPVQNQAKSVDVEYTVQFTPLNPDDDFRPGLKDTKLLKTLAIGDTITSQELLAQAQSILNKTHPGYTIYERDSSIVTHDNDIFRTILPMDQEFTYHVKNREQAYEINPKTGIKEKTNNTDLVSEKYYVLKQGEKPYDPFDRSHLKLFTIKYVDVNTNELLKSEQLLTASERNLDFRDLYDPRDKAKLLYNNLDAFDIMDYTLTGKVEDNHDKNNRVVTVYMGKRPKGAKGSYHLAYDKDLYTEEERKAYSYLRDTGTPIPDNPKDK

[4] = molecular target: T3, Corticotropin-releasing factor receptor 2/Corticotropin-releasing factor-binding protein (Homo sapiens, UniProt P24387+Q13324); assay: activators of CRF receptor 2 with binding protein – uHTS hits, confirmation (AID 602473); type: functional; conditions: read-out: EC50_Mean
T3 sequence (Q13324 whole entry): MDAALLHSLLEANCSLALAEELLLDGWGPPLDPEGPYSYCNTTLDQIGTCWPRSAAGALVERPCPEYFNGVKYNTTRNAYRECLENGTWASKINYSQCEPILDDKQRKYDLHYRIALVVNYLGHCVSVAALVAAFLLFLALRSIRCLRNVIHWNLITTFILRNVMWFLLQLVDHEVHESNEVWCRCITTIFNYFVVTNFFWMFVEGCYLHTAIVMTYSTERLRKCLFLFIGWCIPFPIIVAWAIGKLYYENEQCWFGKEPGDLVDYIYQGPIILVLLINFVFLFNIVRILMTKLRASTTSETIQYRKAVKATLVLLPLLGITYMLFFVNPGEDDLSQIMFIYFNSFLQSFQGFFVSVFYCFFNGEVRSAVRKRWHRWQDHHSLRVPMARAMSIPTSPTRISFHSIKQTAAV
T3 sequence (P24387 whole entry): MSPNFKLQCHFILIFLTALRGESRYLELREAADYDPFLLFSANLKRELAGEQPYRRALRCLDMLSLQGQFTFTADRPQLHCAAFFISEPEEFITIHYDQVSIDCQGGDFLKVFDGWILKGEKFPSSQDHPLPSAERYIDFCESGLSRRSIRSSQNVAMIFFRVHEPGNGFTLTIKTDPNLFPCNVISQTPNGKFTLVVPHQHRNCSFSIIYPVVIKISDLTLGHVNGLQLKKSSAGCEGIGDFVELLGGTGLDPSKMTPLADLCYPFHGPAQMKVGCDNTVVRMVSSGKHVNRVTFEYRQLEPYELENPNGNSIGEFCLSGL

[5] = molecular target: T3, Corticotropin-releasing factor receptor 2/Corticotropin-releasing factor-binding protein; assay: Dose Response confirmation of uHTS hits for small molecule antagonists of the CRF-binding protein and CRF-R2 receptor complex.; type: functional; conditions: read-out: IC50_Mean
[6] = control 3'UTR Renilla luciferase suppression, dose response, counter-screen for Shn3 inhibitor project, cell-based, Clone20-Shn3RL, cherry-picked (AID 624133); type: functional
[7] = Shn3 3'UTR reporter inhibitors, dose response, cell-based, Clone20 osteoblasts, firefly luciferase, cherry-picked (AID 624132); type: functional;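 also: firefly luciferase luminescence from reporter carrying the Shn3 3'UTR in osteoblasts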
[8] = HepG2 cell cytotoxicity, dose response, cytotoxicity control for Shn3 inhibitor project, CellTiter-Glo, cherry-picked (AID 624134); type: functional, cell-based
INS1 = assay: beta cell apoptosis inhibitors, cytokine rescue, dose response, luminescence, retest (AID 449756); type: functional, cell-based; conditions: Rattus norvegicus, INS1;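 also: cell death triggered by IL-1 beta plus TNF-alpha plus IFN-gamma mixture; protective hits raise ATP signal compared with cytokine alone wells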
Cytochrome P450 2C9 = Cytochrome P450 2C9 (Homo sapiens, UniProt P11712)
Chain of Cytochrome P450 2C9 (P11712 whole entry): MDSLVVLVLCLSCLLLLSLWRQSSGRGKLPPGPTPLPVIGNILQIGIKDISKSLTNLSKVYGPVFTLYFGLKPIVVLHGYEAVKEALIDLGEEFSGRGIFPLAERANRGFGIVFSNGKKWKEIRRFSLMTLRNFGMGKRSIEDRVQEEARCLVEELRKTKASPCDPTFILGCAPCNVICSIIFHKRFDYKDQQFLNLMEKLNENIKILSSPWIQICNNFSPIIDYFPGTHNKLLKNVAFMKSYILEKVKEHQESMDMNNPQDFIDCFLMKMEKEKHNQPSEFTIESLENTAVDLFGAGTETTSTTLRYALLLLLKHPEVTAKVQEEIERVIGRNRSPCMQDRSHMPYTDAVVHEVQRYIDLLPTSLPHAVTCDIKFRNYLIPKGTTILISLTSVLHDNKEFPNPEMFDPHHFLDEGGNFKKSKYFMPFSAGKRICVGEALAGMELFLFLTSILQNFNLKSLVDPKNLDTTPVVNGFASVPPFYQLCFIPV

cells [9] = type: functional, cell-based
[10] = cytotoxicity toward NIH3T3 fibroblasts, dose response, counter-screen, cell-based, ATP luminescence, mouse fibroblasts (AID 2010); type: functional;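 also: cells exposed to compound for about 90 hours before reading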
cells [11] = type: functional, cell-based; remark: listed apart in the source
[12] = inhibitors of intracellular T. cruzi replication, confirmation, NIH3T3 host cells, beta-gal luminescence (AID 2044); type: functional, cell-based;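 also: intracellular parasites grown in NIH/3T3 mouse fibroblasts as host cells; luminescent beta-galactosidase reporter signal from transgenic T. cruzi replicating inside host cells; inhibitors lower the luminescence signal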
[13] = HEp-2 cell cytotoxicity, dose response, cytotoxicity control for RSV inhibitor project, HTS (AID 2410); type: functional; conditions: human respiratory syncytial virus

CCOc1ccc(C2N(c3ccc(F)cc3)C(=O)C3CCCN32)cc1OC (centres undefined)
EC50 [1]: > 195 µM (not active)

O=S(=O)(Nc1ccc(-n2cccc2)cc1)c1ccc(Cl)c(Cl)c1
EC50 [2]: 7.42 µM (active)
AC50 [3]: 4.84 µM (active)
EC50 (Streptococcus): 7.58 µM (active)
EC50 (Streptokinase A): 11.3 µM (inconclusive)

Cc1cc(C)cc(C(=O)Nc2cccnc2Cl)c1
EC50 [4]: > 53 µM (inactive)
IC50 [5]: > 47.1 µM (inactive)

CCC(C)[C@H](NC(=O)N1CCn2c1nc1ccccc12)C(=O)NCc1ccc(OC)cc1 (some centres undefined)
EC50 [4]: > 53 µM (inactive)
IC50 [5]: > 47.1 µM (inactive)

CCCCN(C(=O)c1ccc([N+](=O)[O-])s1)c1c(N)n(CCCC)c(=O)[nH]c1=O
EC50 [1]: > 195 µM (not active)

CC(=O)c1c(N2CCN(CCO)CC2)nc(=S)n(-c2ccccc2)c1C
EC50 [1]: > 195 µM (not active)

COc1cc(C(=O)NC2CCCc3c2cnn3-c2ccccc2F)cc(OC)c1OC (centres undefined)
AC50 [6]: 4.13 µM (active)
AC50 [7]: 0.781 µM (active)
AC50 [8]: 6.29 µM (active)

COc1ccc(OC)c(-c2cc(C(=O)N/N=C/c3cc(OC)c(OC)cc3OC)c3ccccc3n2)c1
EC50 [1]: > 195 µM (not active)

COCc1ccc(CN2CCC(C(=O)Nc3cccc(-c4cscn4)c3)CC2)o1
EC50 [4]: > 53 µM (inactive)
IC50 [5]: > 47.1 µM (inactive)

CCO[C@@H]1OC(C(=O)NCc2ccccc2)=C[C@H](c2ccc3c(c2)OCO3)[C@H]1CCCO
EC50 [1]: > 195 µM (not active)

O=C(Nc1ccc(F)cc1)c1cccnc1
AC50 (INS1): 14.5 µM (active)

OCc1nn2c(c1Br)NC(c1ccccc1)CC2C(F)(F)F (centres undefined)
EC50 [1]: > 195 µM (not active)

Cc1cccc(N=C(S)NCC(C)CSc2ccc(Cl)cc2)c1 (centres undefined)
AC50 [3]: 5.75 µM (active)

CCN(CC)S(=O)(=O)c1ccc(C)c(NC(=S)N2CCN(C/C=C/c3ccccc3)CC2)c1
AC50 [6]: 2.53 µM (active)
AC50 [7]: 2.55 µM (active)
AC50 [8]: 67.5 µM (active)

CCN(CC)C(=O)c1cc2cc([N+](=O)[O-])ccc2s1
EC50 [1]: > 195 µM (not active)
AC50 (Cytochrome P450 2C9): 17.8 µM (inconclusive)

COc1ccc(OCC(=O)NNC(=S)NC(=O)c2ccc(Br)o2)cc1
AC50 [6]: 12.4 µM (active)
AC50 [7]: 5.27 µM (active)
AC50 [8]: > 70 µM (inactive)

Cc1ccc2nc(-c3ccccn3)c(Nc3ccccc3C)n2c1
EC50 (cells [9]): 18.6 µM (active)
EC50 [10]: 5.84 µM (active)
AC50 (INS1): 6.06 µM (active)
AC50 [3]: 5.42 µM (active)
EC50 (cells [11]): > 350 µM (not active)
EC50 [12]: 1.74 µM (active)

O=C(COC(=O)Cc1ccsc1)NCC12CC3CC(CC(C3)C1)C2
EC50 [1]: > 195 µM (not active)

O=C(NCc1cccnc1)Nc1ccc([N+](=O)[O-])cc1
AC50 (INS1): 11.8 µM (active)

COC(=O)c1sccc1S(=O)(=O)Nc1ccc(N2CCCCC2)cc1
AC50 (INS1): 29 µM (active)

Cc1nn(-c2ccccc2)c(C)c1/C=N/NC(=O)c1cc(-c2ccc(Br)s2)[nH]n1
EC50 [2]: 7.15 µM (active)
AC50 [3]: 0.434 µM (active)
EC50 (Streptococcus): 11.8 µM (active)
EC50 (Streptokinase A): > 150 µM (not active)

O=C(Nc1ccc(N2CCN(c3ccccc3)CC2)c(F)c1)C1CC1
EC50 [4]: > 53 µM (inactive)
IC50 [5]: > 47.1 µM (inactive)

COc1ccc(C(=O)Nc2ccc(Nc3ccccc3)cc2)cc1[N+](=O)[O-]
AC50 [3]: 2.69 µM (active)
CC50 [13]: 12.2 µM (active)

O=P(/C(=N/O)N1CCOCC1)(N1CCOCC1)N1CCOCC1
EC50 [4]: > 53 µM (inactive)
IC50 [5]: > 47.1 µM (inactive)

O=C1C=C(c2ccnc3cc(Cl)ccc23)C[C@@H](c2ccc3c(c2)OCO3)C1
AC50 [6]: 0.312 µM (active)
AC50 [7]: 1.36 µM (active)
AC50 [8]: 27.6 µM (active)

COc1ccc(C)cc1NC(=O)N1CCCc2ccccc21
EC50 [4]: > 53 µM (inactive)
IC50 [5]: > 47.1 µM (inactive)

CC(C)(c1ccccc1)c1ccc(OCCN2CCCC2)cc1
AC50 [3]: 0.824 µM (active)

O=C(O)COc1ccccc1/C=N/NC(=O)c1ccc2c(c1)OCCO2
EC50 [1]: > 195 µM (not active)

O=[N+]([O-])c1cc(/C=N\O)ccc1Oc1ccc(F)cc1
EC50 [4]: > 53 µM (inactive)
IC50 [5]: 24.9 µM (active)

CC(=O)Nc1ccc(CN2CCC(CO)(CCOc3ccccc3)CC2)cc1
EC50 [1]: > 195 µM (not active)

CO/C(O)=C1/C(C)=Nc2c(c(=O)n(C)c(=O)n2C)C1c1cccc(O)c1 (centres undefined)
EC50 [1]: 27.8 µM (active)

Cc1cc(C)c(NC(=O)c2ccc(CNS(=O)(=O)c3cc(C(F)(F)F)ccc3Cl)cc2)c(C)c1
EC50 [4]: > 53 µM (inactive)
IC50 [5]: > 47.1 µM (inactive)

COc1cc(Nc2nc(-c3ccccc3)c3cc(C)ccc3n2)cc(OC)c1OC
AC50 [7]: 6.55 µM (active)
AC50 [3]: 5.05 µM (active)
AC50 [8]: 60.2 µM (active)

COC(=O)N/N=C(\C)c1cccs1
EC50 [4]: > 53 µM (inactive)
IC50 [5]: > 47.1 µM (inactive)

CC(C)(C)c1ccc(Oc2ccc(N)cc2)cc1
AC50 [3]: 1.85 µM (active)

C/C(=N\NC1=NCCN1)c1ccc(N)c([N+](=O)[O-])c1
EC50 [1]: > 195 µM (not active)

Cc1c(C(=O)C(=O)NCc2cccs2)c2ccccc2n1C
EC50 [1]: > 195 µM (not active)
